{"source": "ChEMBL document CHEMBL1123622", "about": "“Quantitative structure-activity relationships of the bitter thresholds of amino acids, peptides, and their derivatives” (J Med Chem, 1987)", "note": "Non-standard residues stand in square brackets, D forms with d. Residues, ends and D or L forms follow the SMILES beside them."}
{"assay": "Bitter threshold value; NI denotes'Not identifiable (Citrous or fruity taste)'", "assay_type": "functional"}
{"smiles": "O=C(O)CNC(=O)[C@@H]1CCCN1", "note": "(H-Pro-Gly-OH)", "Log 1/T": "Not identifiable"}
{"smiles": "CC(C)[C@H](NC(=O)[C@@H]1CCCN1)C(=O)O", "note": "(H-Pro-Val-OH)", "Log 1/T": "Not identifiable"}
{"assay": "Bitter threshold value; B denotes 'bitter'", "assay_type": "functional"}
{"smiles": "CC(C)C[C@H](NC(=O)[C@H](C)NC(=O)[C@H](C)N)C(=O)O", "note": "(H-Ala-Ala-Leu-OH)", "Log 1/T": "Bitter"}
{"smiles": "CC[C@H](C)[C@H](NC(=O)[C@H](C)N)C(=O)N[C@@H](C)C(=O)O", "note": "(H-Ala-Ile-Ala-OH)", "Log 1/T": "Bitter"}
{"smiles": "CC(C)C[C@H](NC(=O)[C@H](C)NC(=O)CN)C(=O)O", "note": "(H-Gly-Ala-Leu-OH)", "Log 1/T": "Bitter"}
{"smiles": "CC(C)C[C@@H](N)C(=O)NCC(=O)O", "note": "(H-[dL]-Gly-OH)", "Log 1/T": "Bitter"}
